Experiments:
[1] = test system: genotype 1b HCV; test: Antiviral effect of 22β-methoxyolean-12-ene-3β,24(4β)-diol and PEG-IFN in refractory chronic hepatitis C (LVR case); blood HCV load by TaqMan PCR; format: in vivo, human; conditions: for Ratio of negativity achieved in blood HCV after 12 weeks from administrations (age) / Ratio of negativity achieved in blood HCV after 12 weeks from administrations (sex): LVR case
Experimental: Subjects were 21 patients (9 men, 12 women) infected with genotype 1b HCV and having chronic hepatitis C. […] To these subject patients in a refractory chronic hepatitis C case, a fine granule containing 25 mg or 400 mg of […] was orally administered twice a day and 180 μg of PEG-IFN-α-2a (Pegasys: manufactured by Roche Holding AG and Chugai Pharmaceutical Co., Ltd.) was subcutaneously administered per week. […] The blood HCV load was measured using the TaqMan® PCR method, and the baseline of negativity was below 1.2 Log IU/mL.
The backgrounds of all the patients in the two administration groups are as follows. […] These exceeded the baseline, 5.00 Log IU/mL, of the high viral load, and all the patients were infected with genotype 1b.

[2] = test system: genotype 1b HCV; test: Antiviral effect of 22β-methoxyolean-12-ene-3β,24(4β)-diol and PEG-IFN in refractory chronic hepatitis C (NR case); blood HCV load by TaqMan PCR; format: in vivo, human; conditions: for Ratio of negativity achieved in blood HCV after 24 weeks from administrations: NR-case patients N=6; for Ratio of negativity achieved in blood HCV after 24 weeks from administrations (age) / Ratio of negativity achieved in blood HCV after 24 weeks from administrations (sex): NR case
Experimental: Subjects were the following patients (12 in total; 7 men, 5 women) who had been infected with genotype 1b HCV and had chronic hepatitis C and who were particularly considered to be highly refractory.
To these subject patients (NR case), a fine granule containing 25 mg or 400 mg of 22β-methoxyolean-12-ene-3β,24(4β)-diol was orally administered twice a day and 180 μg of PEG-IFN-α-2a (Pegasys: Roche Holding AG and Chugai Pharmaceutical Co., Ltd.) was subcutaneously administered per week. These administrations were continued for 24 weeks (hereinafter, the patients were referred to as a “50 mg/day administration group” or an “800 mg/day administration group”). The transitions of the blood HCV load and safety (clinical test value abnormality: blood hemoglobin value) before the administrations and up to 24 weeks were examined. The blood HCV load was measured using the TaqMan® PCR method, and the baseline of negativity was below 1.2 Log IU/mL.
The backgrounds of all the patients in the two administration groups are as follows. As for the sex, there were 7 men (58.3%) and 5 women […]. As for the age, the average age was 58.3, the youngest was 43 years old, and the oldest was 69 years old. With the baseline of 60 years old, there were 6 people who were under 60 years old (50.0%) and 6 people who were 60 years old or above (50.0%). The average blood HCV load of the patients before the administrations was 6.66 Log IU/mL with the minimum load of 5.30 Log IU/mL and the maximum load of 7.40 Log IU/mL. These exceeded the baseline, 5.00 Log IU/mL, of the high viral load, and all the patients were infected with genotype 1b.

[3] = test system: HCV; conditions: without ribavirin; cited from earlier work
[4] = 60 years old or above, 50 mg/day with PEG-IFN-α-2a
[5] = 60 years old or above, 800 mg/day with PEG-IFN-α-2a
[6] = 60 years old or above, total of both doses with PEG-IFN-α-2a
[7] = Men, 50 mg/day with PEG-IFN-α-2a
[8] = Men, 800 mg/day with PEG-IFN-α-2a
[9] = Men, total of both doses with PEG-IFN-α-2a
[10] = Women, 50 mg/day with PEG-IFN-α-2a
[11] = Women, 800 mg/day with PEG-IFN-α-2a
[12] = Women, total of both doses with PEG-IFN-α-2a
[13] = under 60 years old, 50 mg/day with PEG-IFN-α-2a
[14] = under 60 years old, 800 mg/day with PEG-IFN-α-2a
[15] = under 60 years old, total of both doses with PEG-IFN-α-2a

SMILES: CO[C@@H]1CC(C)(C)C[C@H]2C3=CC[C@@H]4[C@@]5(C)CC[C@H](O)[C@](C)(CO)[C@@H]5CC[C@@]4(C)[C@]3(C)CC[C@@]12C [22β-methoxyolean-12-ene-3β,24(4β)-diol]
- Ratio of negativity achieved in blood HCV after 12 weeks from administrations ([1]; 50 mg/day (25 mg orally twice a day) combined with PEG-IFN-α-2a 180 μg/week s.c., LVR-case patients N=11, negativity below 1.2 Log IU/mL): 63.6% (7/11)
- Ratio of negativity achieved in blood HCV after 12 weeks from administrations ([1]; 800 mg/day (400 mg orally twice a day) combined with PEG-IFN-α-2a 180 μg/week s.c., LVR-case patients N=10): 50.0% (5/10)
- Ratio of negativity achieved in blood HCV after 12 weeks from administrations (age) [1, 4]: 75.0% (6/8)
- Ratio of negativity achieved in blood HCV after 12 weeks from administrations (age) [1, 5]: 25.0% (1/4)
- Ratio of negativity achieved in blood HCV after 12 weeks from administrations (age) [1, 6]: 58.3% (7/12)
- Ratio of negativity achieved in blood HCV after 12 weeks from administrations (sex) [1, 7]: 60.0% (3/5)
- Ratio of negativity achieved in blood HCV after 12 weeks from administrations (sex) [1, 8]: 50.0% (2/4)
- Ratio of negativity achieved in blood HCV after 12 weeks from administrations (sex) [1, 9]: 55.6% (5/9)
- Ratio of negativity achieved in blood HCV after 12 weeks from administrations (sex) [1, 10]: 66.7% (4/6)
- Ratio of negativity achieved in blood HCV after 12 weeks from administrations (sex) [1, 11]: 50.0% (3/6)
- Ratio of negativity achieved in blood HCV after 12 weeks from administrations (sex) [1, 12]: 58.3% (7/12)
- Blood HCV load continued to be negative for 48 weeks of the administration period ([1]; patients negative by 12 weeks whose administrations (25 or 400 mg twice a day with PEG-IFN-α-2a 180 μg/week) were continued up to 48 weeks): two out of three patients
- Relapse after the non-treatment period of subsequent 24 weeks ([1]; the patients negative through 48 weeks of administration with PEG-IFN-α-2a, complete recovery was achieved): no relapse occurred
- Ratio of negativity achieved in blood HCV after 12 weeks from administrations (age) [1, 13]: 33.3% (1/3)
- Ratio of negativity achieved in blood HCV after 12 weeks from administrations (age) [1, 14]: 66.7% (4/6)
- Ratio of negativity achieved in blood HCV after 12 weeks from administrations (age) [1, 15]: 55.6% (5/9)
- Ratio of negativity achieved in blood HCV after 24 weeks from administrations ([2]; 50 mg/day (25 mg orally twice a day) combined with PEG-IFN-α-2a 180 μg/week s.c., negativity below 1.2 Log IU/mL): 50.0% (3/6)
- Ratio of negativity achieved in blood HCV after 24 weeks from administrations ([2]; 800 mg/day (400 mg orally twice a day) combined with PEG-IFN-α-2a 180 μg/week s.c.): 50.0% (3/6)
- Ratio of negativity achieved in blood HCV after 24 weeks from administrations (age) [2, 4]: 50.0% (1/2)
- Ratio of negativity achieved in blood HCV after 24 weeks from administrations (age) [2, 5]: 50.0% (2/4)
- Ratio of negativity achieved in blood HCV after 24 weeks from administrations (age) [2, 6]: 50.0% (3/6)
- Ratio of negativity achieved in blood HCV after 24 weeks from administrations (sex) [2, 7]: 50.0% (2/4)
- Ratio of negativity achieved in blood HCV after 24 weeks from administrations (sex) [2, 8]: 33.3% (1/3)
- Ratio of negativity achieved in blood HCV after 24 weeks from administrations (sex) [2, 9]: 42.9% (3/7)
- Ratio of negativity achieved in blood HCV after 24 weeks from administrations (sex) [2, 10]: 50.0% (1/2)
- Ratio of negativity achieved in blood HCV after 24 weeks from administrations (sex) [2, 11]: 66.7% (2/3)
- Ratio of negativity achieved in blood HCV after 24 weeks from administrations (sex) [2, 12]: 60.0% (3/5)
- Ratio of negativity achieved in blood HCV after 24 weeks from administrations (age) [2, 13]: 50.0% (2/4)
- Ratio of negativity achieved in blood HCV after 24 weeks from administrations (age) [2, 14]: 50.0% (1/2)
- Ratio of negativity achieved in blood HCV after 24 weeks from administrations (age) [2, 15]: 50.0% (3/6)
- Anti-HCV activity in combination with an IFN [3]: synergistic anti-HCV activity

Reference: patent US20120100105A1, “AGENT AND METHOD FOR TREATING REFRACTORY CHRONIC HEPATITIS C” (MEIJI SEIKA PHARMA CO., LTD., priority 2009, published 2012)
